Results: patent publication US6355633B1, “Aryl sulfonic acids and derivatives as FSH antagonists” (American Home Products Corporation, priority 1999, dated 2002)

Each compound was assayed against T1, FSH receptor (Homo sapiens, UniProt P23945) (assay: In Vitro Bio-test Procedure of Agonists and Antagonists to the FSH Receptor (cAMP accumulation in CHO-3D2 cells)). Settings: not given.
T1 sequence (P23945 18-695): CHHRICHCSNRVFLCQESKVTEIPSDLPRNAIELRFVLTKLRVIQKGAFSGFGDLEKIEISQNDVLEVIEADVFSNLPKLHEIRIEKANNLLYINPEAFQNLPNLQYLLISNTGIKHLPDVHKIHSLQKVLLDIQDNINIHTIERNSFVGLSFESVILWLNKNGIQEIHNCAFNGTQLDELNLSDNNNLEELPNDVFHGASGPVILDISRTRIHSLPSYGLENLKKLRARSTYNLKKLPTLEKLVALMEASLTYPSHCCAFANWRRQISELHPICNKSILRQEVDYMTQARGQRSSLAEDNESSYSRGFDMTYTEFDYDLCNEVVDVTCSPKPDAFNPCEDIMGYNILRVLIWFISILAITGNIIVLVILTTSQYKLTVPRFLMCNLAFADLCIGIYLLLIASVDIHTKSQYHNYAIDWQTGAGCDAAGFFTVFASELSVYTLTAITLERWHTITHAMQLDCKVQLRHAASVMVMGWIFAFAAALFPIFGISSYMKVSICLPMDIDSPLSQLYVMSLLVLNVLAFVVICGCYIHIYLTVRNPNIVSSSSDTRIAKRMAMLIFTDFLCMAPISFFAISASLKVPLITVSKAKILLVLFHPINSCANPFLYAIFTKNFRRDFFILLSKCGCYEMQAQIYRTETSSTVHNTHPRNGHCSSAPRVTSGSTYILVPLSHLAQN
Type: cell-based
Parameters: expressed in transfected cells; host or cells: CHO-3D2 cells
Summary of the method: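 CHO-3D2 cells (30,000/well, plated one day earlier) preincubated 30-45 min, then challenged with compounds in Optimem/0.1% BSA for 30 minutes at 37 deg C; agonist mode at 5 concentrations, antagonist mode against ED20 FSH. cAMP accumulation in medium measured by radioimmunoassay (fmol/mL); ANOVA with Dunnett's or Duncan's test.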
`COCCOCCOc1ccc(C(=O)Nc2ccc(/C=C/c3ccc(NC(=O)c4ccc(OCCOCCOC)c(S(=O)(=O)N5CCOCC5)c4)cc3S(=O)(=O)O)c(S(=O)(=O)O)c2)cc1S(=O)(=O)N1CCOCC1` [Example 30a, 2,2′-[(E)-1,2-Ethenediyl]bis[5-[[4-[2-(2-methoxyethoxy)ethoxy]-3-(4-morpholinylsulfonyl)benzoyl]amino]benzenesulfonic Acid]] was tested, and the IC50 was 1600 nM. `CS(=O)(=O)c1ccc(C(=O)Nc2ccc(/C=C/c3ccc(NC(=O)c4ccc(S(C)(=O)=O)c(S(=O)(=O)N5CCOCC5)c4)cc3S(=O)(=O)O)c(S(=O)(=O)O)c2)cc1S(=O)(=O)N1CCOCC1` [Example 30d, 2,2′-[(E)-1,2-Ethenediyl]bis[5-[[4-(methylsulfonyl)-3-(4-morpholinylsulfonyl)benzoyl]amino]benzenesulfonic Acid]] showed an IC50 of 1600 nM. `CSc1ccc(C(=O)Nc2ccc(/C=C/c3ccc(NC(=O)c4ccc(S(C)(=O)=O)c([N+](=O)[O-])c4)cc3S(=O)(=O)O)c(S(=O)(=O)O)c2)cc1S(=O)(=O)N1CCOCC1` [Example 30e] was tested, and the IC50 was 900 nM. `COCCNS(=O)(=O)c1cc(C(=O)Nc2ccc(/C=C/c3ccc(NC(=O)c4ccc(S(C)(=O)=O)c([N+](=O)[O-])c4)cc3S(=O)(=O)O)c(S(=O)(=O)O)c2)ccc1OC` [Example 30f] gave an IC50 of 3100 nM. With `COc1ccc(C(=O)Nc2ccc(/C=C/c3ccc(NC(=O)c4ccc(OC)c(S(=O)(=O)N5CCS(=O)(=O)CC5)c4)cc3S(=O)(=O)O)c(S(=O)(=O)O)c2)cc1S(=O)(=O)N1CCS(=O)(=O)CC1` [Example 30k, 2,2′-[(E)-1,2-Ethenediyl]bis[5-[[3-[(1,1-dioxido-4-thiomorpholinyl)sulfonyl]-4-methoxybenzoyl]amino]benzenesulfonic Acid]] the IC50 was 1500 nM. `COCCNS(=O)(=O)c1cc(C(=O)Nc2ccc(/C=C/c3ccc(NC(=O)c4ccc(OC)c(S(=O)(=O)NCCOC)c4)cc3S(=O)(=O)O)c(S(=O)(=O)O)c2)ccc1OC` [Example 30m, 2,2′-[(E)-1,2-Ethenediyl]bis[5-[[4-methoxy-3-[[(2-methoxyethyl)amino]sulfonyl]benzoyl]amino]benzenesulfonic Acid]] gave an IC50 of 5800 nM. `CS(=O)(=O)c1ccc(C(=O)Nc2ccc(/C=C/c3ccc(NC(=O)c4ccc(S(C)(=O)=O)cc4)cc3S(=O)(=O)O)c(S(=O)(=O)O)c2)cc1` [Example 30q, 2,2′-[(E)-1,2-Ethenediyl]bis[5-[[4-(methylsulfonyl)benzoyl]amino]benzenesulfonic Acid]] gave an IC50 of 12000 nM. `O=C(Nc1ccc(/C=C/c2ccc(NC(=O)c3ccc(OC4CCOCC4)c(S(=O)(=O)N4CCOCC4)c3)cc2S(=O)(=O)O)c(S(=O)(=O)O)c1)c1ccc(OC2CCOCC2)c(S(=O)(=O)N2CCOCC2)c1` [Example 30r, 2,2′-[(E)-1,2-Ethenediyl]bis[5-[[3-(4-morpholinylsulfonyl)-4-[(tetrahydro-2H-pyran-4-yl)oxy]benzoyl]amino]benzenesulfonic Acid]] showed an IC50 of 2000 nM. `COc1ccc(C(=O)Nc2ccc(/C=C/c3ccc(NC(=O)c4ccc(OC)c(S(=O)(=O)N5CCOCC5)c4)cc3S(=O)(=O)O)c(S(=O)(=O)O)c2)cc1S(=O)(=O)N1CCOCC1` [Example 30s, 2,2′-[(E)-1,2-Ethenediyl]bis[5-[[4-methoxy-3-(4-morpholinylsulfonyl)benzoyl]amino]benzenesulfonic Acid]] was tested, and the IC50 was 4400 nM. For `COCCOc1ccc(C(=O)Nc2ccc(/C=C/c3ccc(NC(=O)c4ccc(OCCOC)c(S(=O)(=O)N5CCOCC5)c4)cc3S(=O)(=O)O)c(S(=O)(=O)O)c2)cc1S(=O)(=O)N1CCOCC1` [Example 30t, 2,2′-[(E)-1,2-Ethenediyl]bis[5-[[4-(2-methoxyethoxy)-3-(4-morpholinylsulfony)benzoyl]amino]benzenesulfonic Acid]], the IC50 was 1400 nM. Compound `CCS(=O)(=O)c1ccc(C(=O)Nc2ccc(/C=C/c3ccc(NC(=O)c4ccc(S(=O)(=O)CC)cc4)cc3S(=O)(=O)O)c(S(=O)(=O)O)c2)cc1` [Example 32f, 2,2′-[(E)-1,2-Ethenediyl]bis[5-[[4-(ethylsulfonyl)benzoyl]amino]benzenesulfonic Acid]] has an IC50 of 4200 nM. For `COc1ccc(C(=O)Nc2ccc(/C=C/c3ccc(NC(=O)c4ccc(OC)c(S(=O)(=O)N5CCSCC5)c4)cc3S(=O)(=O)O)c(S(=O)(=O)O)c2)cc1S(=O)(=O)N1CCSCC1` [Example 33d, 2,2′-[(E)-1,2-Ethenediyl]bis[5-[[4-methoxy-3-(4-thiomorpholinylsulfonyl)benzoyl]amino]benzenesulfonic Acid]], the IC50 was 2600 nM. In the case of `COc1ccc(C(=O)Nc2ccc(/C=C/c3ccc(NC(=O)c4ccc(OC)c(S(=O)(=O)N5CCCC5)c4)cc3S(=O)(=O)O)c(S(=O)(=O)O)c2)cc1S(=O)(=O)N1CCCC1` [Example 33e, 2,2′-[(E)-1,2-Ethenediyl]bis[5-[[4-methoxy-3-(1-pyrrolidinylsulfonyl)benzoyl]amino]benzenesulfonic Acid]], the IC50 is reported as 1500 nM. `COc1ccc(C(=O)Nc2ccc(/C=C/c3ccc(NC(=O)c4ccc(OC)c(S(=O)(=O)N5CCN(C(C)=O)CC5)c4)cc3S(=O)(=O)O)c(S(=O)(=O)O)c2)cc1S(=O)(=O)N1CCN(C(C)=O)CC1` [Example 34a, 2,2′-[(E)-1,2-Ethenediyl]bis[5-[[3-[(4-acetyl-1-piperazinyl)sulfonyl]-4-methoxybenzoyl]amino]benzenesulfonic Acid]] showed an IC50 of 3300 nM. `COc1ccc(C(=O)Nc2ccc(/C=C/c3ccc(NC(=O)c4ccc(OC)c(S(=O)(=O)N5CCN(C=O)CC5)c4)cc3S(=O)(=O)O)c(S(=O)(=O)O)c2)cc1S(=O)(=O)N1CCN(C=O)CC1` [Example 34b, 2,2′-[(E)-1,2-Ethenediyl]bis[5-[[3-[(4-formyl-1-piperazinyl)sulfonyl]-4-methoxybenzoyl]amino]benzenesulfonic Acid]] was tested, and the IC50 was 1700 nM. `COc1ccc(C(=O)Nc2ccc(CCc3ccc(NC(=O)c4ccc(S(C)(=O)=O)cc4)cc3S(=O)(=O)O)c(S(=O)(=O)O)c2)cc1S(=O)(=O)N1CCOCC1` [Example 43a, 5-[[4-Methoxy-3-(4-morpholinylsulfonyl)benzoyl]amino]-2-[2-[4-[[4-(methylsulfonyl)benzoyl]amino]-2-sulfophenyl]ethyl]benzenesulfonic Acid] showed an IC50 of 8700 nM.

Same assay, conditions: antagonist mode, inhibition of hFSH-induced cAMP accumulation (ED20 of FSH, […]), CHO-3D2 cells
“2,2′-[(E)-1,2-Ethenediyl]bis[5-[[4-(methylthio)-3-(4-morpholinylsulfonyl)benzoyl]amino]benzenesulfonic Acid] [Example 30b]” showed an IC50 of 1300 nM. `CS(=O)(=O)c1ccc(C(=O)Nc2ccc(/C=C/c3ccc(NC(=O)c4ccc(S(C)(=O)=O)c([N+](=O)[O-])c4)cc3S(=O)(=O)O)c(S(=O)(=O)O)c2)cc1[N+](=O)[O-]` [Example 30c, 2.2′-[(E)-1,2-Ethenediyl]bis[5-[[(4-methylsulfonyl)-3-(nitro)-benzoyl]amino]benzenesulfonic Acid]] was tested, and the IC50 was 3600 nM. Work on `COc1ccc(C(=O)Nc2ccc(/C=C/c3ccc(NC(=O)c4ccc(S(C)(=O)=O)cc4)cc3S(=O)(=O)O)c(S(=O)(=O)O)c2)cc1S(=O)(=O)N1CCOCC1` [Example 30g] yielded an IC50 of 2500 nM.
